{"source": "patent US8951512B2", "about": "“Methods for treating bone disorders by characterizing and restoring mammalian bacterial microbiota” (New York University, priority 2010, dated 2015)", "key": {"[1]": {"system": "butyryl coA transferase (BCoAT) gene", "assay": "Degenerate quantitative PCR for BCoAT on fecal specimens", "assay_type": "in vivo, mice", "method": "(§1) Quantitative PCR assays to assess for taxa of interest were performed on a Rotor Gene 3000 quantitative PCR cycler using the LightCycler FastStart DNA Master PLUS SYBR Green I kit (Roche, Indianapolis Ind.) according to the manufacturer's instructions. Quantitative assays to assess total microbial census were performed for Bacteria using 16S rRNA and Fungi using ITS sequences. Quantitative assays were also performed for butyryl CoA transferase (BCoAT) and formyltetrahydrofolate synthetase (FTHFS). Values were normalized using total Bacterial 16S copies prior to analyses.\n(§2) Because of the central role of short-chain fatty acid synthesis in colonic metabolism (Wong et al., J Clin Gastroenterol 40, 235-243 (2006)), the effect of STAT exposure on the prokaryotic genes butyryl coA transferase (BCoAT) and formyltetrahydrofolate synthetase (FTHFS) that play roles in butyrate and acetate synthesis was examined Degenerate quantitative PCRs for BCoAT and FTHFS (primers listed in Table 1) were performed on fecal specimens in STAT (penicillin) and control mice. […] These findings provide evidence that STAT exposure perturbs not only GI microbiome, composition but also abundance of genes critical to host energy homeostasis."}, "[2]": {"assay": "Sub-therapeutic antibiotic treatment (STAT) in drinking water: growth and body composition by weighing, DEXA and MRI", "assay_type": "in vivo, C57BL6/J mice", "conditions": "vs control", "method": "Low dose penicillin (6.67 mg/L) was administered in the drinking water of C57BL6/J mice either at birth (day 0, antibiotics initially received through maternal milk) or at weaning (day 28); control mice received no antibiotics. All mice were given ad libitum access to food and water, and mice were fed either standard chow (13.5% kcal from fat) or high fat diet (45% kcal from fat). Mice were weighed daily and body composition was analyzed by dual energy x-ray absorptiometry (DEXA) and magnetic resonance imaging (MRI.)\nC57B6 breeder mice (F0) were obtained at 6 weeks of age from Jackson Laboratory. One male was mated with 2 females to create the F1 generation. Males and females were separated after pregnancy was detected. On day 14 of pregnancy, STAT breeder females were exposed to penicillin so that their offspring would be exposed to antibiotics from birth; control breeders had no antibiotic exposure. From the F1 generation, penicillin-treated and control mice at or near the median weight of their group were selected at 12 weeks of age to become breeders, and to produce the F2 generation. Breeder mice and offspring were maintained on their current treatment (either control or penicillin). […]\nThe litters were monitored closely and the following information was collected: mating pairs, date of birth, litter number, number born, number weaned, animal number, gender, and generation number. […]\nMice were anesthetized using isofluorane. Total body mass, lean mass, fat mass, body fat percentage, and bone mineral density were measured using the Lunar PIXImus densitometer. […]\nMice were anaesthetized with isofluorane. Body temperature and breathing rate were continuously monitored throughout the scan, and body temperature was maintained by flowing warm air through the coil. […] Total body fat percentage was calculated by merging the two images to generate a fat fraction image. […] The fat volume was calculated by multiplying total volume of the VOI by the mean fat %. To determine liver adiposity, 5 consecutive slices of the liver were traced to generate a liver VOI, and the average percent fat was recorded. […]"}, "liver gene expression": {"system": "liver gene expression", "assay": "Hepatic gene expression profiling by microarray", "assay_type": "in vivo, mice", "source_text": "(§3) Total DNA and total RNA was extracted from the mouse liver by the Wizard® Genomic DNA purification Kit (Promega) and RNeasy Mini Kit (Qiagen), respectively, according to the manufacturers instructions. Total RNA was reverse transcribed to cDNA using the Verso™ cDNA Synthesis Kit (Thermo Scientific). To generate standards for each target gene expression analysis, the DNA or cDNA region of interest was PCR-amplified and the PCR product was cloned using the pGEM-Teasy vector system (Promega). qPCR was performed with a LightCycler 480 SYBR Green I Master (Roche) and run in a LightCycler 480 system (Roche). Target mRNA was normalized to GAPDH mRNA as an internal control in each sample.\nExpression profiling of the STAT and control animal groups (n=6 each) was performed using the Affymetrix Genechip system (Affymetrix, Santa Clara, Calif.). Total RNA quality and quantity were determined using the Agilent 2100 Bioanalyzer and Nanodrop ND-1000. Total RNA (100 ng) was used to prepare cDNA following the Affymetrix 3′IVT Express Kit labeling protocol (Affymetrix). Standardized array processing procedures recommended by Affymetrix were performed, including hybridization, fluidics processing and scanning of the Affymetrix MG-430 2.0 arrays. GeneSpring GX11 software (Agilent Technologies, Santa Clara, Calif.) was used to normalize the raw data (Affymetrix CEL files) by Robust Multichip Average algorithm (RMA)."}, "PPARγ": {"system": "PPARγ", "assay": "Hepatic qPCR normalized to GAPDH", "assay_type": "in vivo, mice", "conditions": "liver qPCR, vs control", "source_text": "as §3"}, "[3]": {"system": "insulin receptor substrate 2 (IRS-2)", "assay": "Hepatic qPCR normalized to GAPDH", "assay_type": "in vivo, mice", "conditions": "liver, vs control; same direction as microarrays", "source_text": "as §3"}, "SREBP1c": {"system": "SREBP1c", "assay": "Hepatic qPCR normalized to GAPDH", "assay_type": "in vivo, mice", "conditions": "liver, vs control; same direction as microarrays", "source_text": "as §3"}, "[4]": {"system": "fatty acid translocase (FAT, CD36)", "assay": "Hepatic qPCR normalized to GAPDH", "assay_type": "in vivo, mice", "conditions": "liver qPCR, vs control", "source_text": "as §3"}, "[5]": {"system": "formyltetrahydrofolate synthetase (FTHFS) gene", "assay": "Degenerate quantitative PCR for FTHFS on fecal specimens", "assay_type": "in vivo, mice", "conditions": "vs control", "method": "as §1, §2"}}}
{"substance": "penicillin", "values": [{"measurement": "BCoAT gene copies", "setting": "[1]; at 3 weeks", "value": "193±22", "unit": "normalized copies"}, {"measurement": "BCoAT gene copies", "setting": "[1]; by 7 weeks, vs control", "value": "normalized"}, {"measurement": "Weight at 21 days", "setting": "[2]; F1 generation, female mice", "value": "significantly decreased"}, {"measurement": "Weight at 21 days", "setting": "[2]; F1 generation, sex not given", "value": "no difference"}, {"measurement": "Weight at 21 days", "setting": "[2]; F2 generation, both females and males", "value": "significantly increased"}, {"measurement": "Genes significantly up- or down-regulated by t-test or PTM", "setting": "liver gene expression; >45,000 genes surveyed, vs control", "value": 466, "unit": "genes"}, {"measurement": "Genes significantly differed from controls by both tests", "setting": "liver gene expression; t-test and PTM", "value": 397, "unit": "genes"}, {"measurement": "Genes differentially expressed, fatty acid metabolism pathways", "setting": "liver gene expression; vs control", "value": 22, "unit": "genes"}, {"measurement": "Genes differentially expressed, lipid metabolic processes", "setting": "liver gene expression; vs control", "value": 47, "unit": "genes"}, {"measurement": "PPARγ normalized gene counts", "setting": "PPARγ", "value": "significantly higher"}, {"measurement": "IRS-2 qPCR result", "setting": "[3]", "value": "not statistically significant"}, {"measurement": "SREBP1c qPCR result", "setting": "SREBP1c", "value": "not statistically significant"}, {"measurement": "FAT normalized gene counts", "setting": "[4]", "value": "significantly higher"}, {"measurement": "FTHFS gene copies", "setting": "[5]; at 3 weeks", "value": "no significant differences"}, {"measurement": "FTHFS gene copies", "setting": "[5]; by 7 weeks", "value": "significantly higher"}]}
